Results: US9784753B2, “Biological system to test in vitro if a substance is immune reactive” (priority 1996, dated 2017)

Tests used:
[1] = test system: frozen whole blood stimulated with LPS; test: Modulation of LPS-stimulated IL-1 release in frozen whole blood; format: cell-based, human; settings: depending on amount of substance administered; FIGS. 2 and 3
Method: Citrated blood from healthy donors was mixed with 10% dimethylsulfoxide (Merck, Darmstadt) immediately after it was drawn. Aliquots of 100 microliters were distributed in 2 milliliter reaction vessels (Eppendorf, Hamburg) and transferred to a −70° C. cold box in a commercial freezing system (a person, Nalgene). Thawing was done in a thermoshaker (Eppendorf, Hamburg) at 37° C. Immediately after thawing, 900 microliters of RPMI 1640 (Gibco, Eggenstein), warmed to 37° C., was added. Then the test substances, such as dilutions of a pyrogen, in this case, lipopolysaccharide of Salmonella abortus equi (Sigma, Deisenhofen) were added. After a four-hour incubation at 37° C., for example, in an incubator (Heraeus, Fellbach) with 5% carbon dioxide the incubated samples are shaken and centrifuged. Endogenous pyrogens, IL-1β in this case, are determined in the cell-free supernatant, after freezing, if desired. […] IL-1β was determined by ELISA (enzyme-linked immunosorbent assay) from antibodies from the company Pharmingen (Hamburg).

[2] = test system: cryopreserved blood from four healthy donors; test: IL-1β release in thawed cryopreserved whole blood on contact with pyrogen (ELISA); format: cell-based, human; settings: thawed deep-frozen citrated blood with 10% dimethylsulfoxide, diluted with RPMI 1640, four-hour incubation at 37° C., FIG. 1
Method: Citrated blood from healthy donors was mixed with 10% dimethylsulfoxide (Merck, Darmstadt) immediately after it was drawn. Aliquots of 100 microliters were distributed in 2 milliliter reaction vessels (Eppendorf, Hamburg) and transferred to a −70° C. cold box in a commercial freezing system (Mr. Freezy, Nalgene). Thawing was done in a thermoshaker (Eppendorf, Hamburg) at 37° C. Immediately after thawing, 900 microliters of RPMI 1640 (Gibco, Eggenstein), warmed to 37° C., was added. Then the test substances, such as dilutions of a pyrogen, in this case, lipopolysaccharide of Salmonella abortus equi (Sigma, Deisenhofen) were added. After a four-hour incubation at 37° C., for example, in an incubator (Heraeus, Fellbach) with 5% carbon dioxide the incubated samples are shaken and centrifuged. Endogenous pyrogens, IL-1β in this case, are determined in the cell-free supernatant, after freezing, if desired. […] IL-1β was determined by ELISA (enzyme-linked immunosorbent assay) from antibodies from the company Pharmingen (Hamburg).

Cn1cnc([N+](=O)[O-])c1Sc1ncnc2[nH]cnc12 [azathioprin]
release of IL-1 in frozen whole blood stimulated with LPS [1]: dependence of release of IL-1

lipopolysaccharide of Salmonella abortus equi
release of endogenous pyrogens (IL-1β) [2]: release of endogenous pyrogens in the presence of minimal amounts of pyrogens
